Test results from publication PMC5546122, “Effects of Fungicides on Rat's Neurosteroid Synthetic Enzymes” (BioMed Research International, 2017).
Like-named read-outs stand apart in the source and are kept apart here.

Assays:
[1] = target: T1, 3α-HSD (3α-hydroxysteroid dehydrogenase; AKR1C14) (Rattus norvegicus, UniProt P23457); assay: radiometric TLC enzyme assay, transfected COS-1 cytosol; assay type: biochemical
T1 construct: gene Akr1c9; Akr1c14 in pRc/CMV, transient expression in COS-1 cells, cytosolic fraction
T1 sequence (P23457 1-322): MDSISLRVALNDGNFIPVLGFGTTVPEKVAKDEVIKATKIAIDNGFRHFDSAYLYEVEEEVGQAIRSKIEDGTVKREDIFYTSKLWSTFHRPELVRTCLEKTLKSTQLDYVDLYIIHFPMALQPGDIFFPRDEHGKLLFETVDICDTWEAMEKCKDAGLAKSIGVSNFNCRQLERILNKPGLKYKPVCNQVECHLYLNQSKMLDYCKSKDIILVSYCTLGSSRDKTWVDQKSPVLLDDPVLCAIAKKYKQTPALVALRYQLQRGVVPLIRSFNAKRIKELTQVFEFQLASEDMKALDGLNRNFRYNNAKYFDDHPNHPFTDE
From the text: radiometric TLC enzyme assay, transfected COS-1 cytosol on 3α-HSD (3α-hydroxysteroid dehydrogenase; AKR1C14)

[2] = target: T2, 5α-Red1 (5α-reductase 1; SRD5A1) (Rattus norvegicus, UniProt P24008); assay: radiometric TLC enzyme assay, transfected COS-1 microsomes; assay type: biochemical
T2 construct: Srd5a1 in pcDNA1.1, transient expression in COS-1 cells, microsomal fraction
T2 sequence (P24008 1-259): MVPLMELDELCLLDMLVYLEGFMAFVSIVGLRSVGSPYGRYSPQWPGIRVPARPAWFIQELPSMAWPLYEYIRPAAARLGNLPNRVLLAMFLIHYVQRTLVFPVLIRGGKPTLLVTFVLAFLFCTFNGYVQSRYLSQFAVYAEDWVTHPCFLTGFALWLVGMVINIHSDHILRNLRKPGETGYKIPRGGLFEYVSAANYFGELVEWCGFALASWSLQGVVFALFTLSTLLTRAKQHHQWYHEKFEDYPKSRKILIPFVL
From the text: radiometric TLC enzyme assay, transfected COS-1 microsomes on 5α-Red1 (5α-reductase 1; SRD5A1)

[3] = target: T3, RDH2 (retinol dehydrogenase 2) (Rattus norvegicus, UniProt P50170); assay: as above; assay type: biochemical
T3 construct: gene Rdh16; full-length cDNA in pcDNA1.1, transient expression in COS-1 cells, microsomal fraction
T3 sequence (P50170 1-317): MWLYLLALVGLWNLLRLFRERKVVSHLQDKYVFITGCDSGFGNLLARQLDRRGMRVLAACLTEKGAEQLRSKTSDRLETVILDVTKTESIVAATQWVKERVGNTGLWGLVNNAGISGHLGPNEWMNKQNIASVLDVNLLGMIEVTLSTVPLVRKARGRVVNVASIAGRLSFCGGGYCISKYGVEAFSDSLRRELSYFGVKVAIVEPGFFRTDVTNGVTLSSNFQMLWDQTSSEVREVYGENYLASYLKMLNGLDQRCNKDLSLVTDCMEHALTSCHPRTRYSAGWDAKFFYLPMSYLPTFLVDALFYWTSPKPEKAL
From the text: radiometric TLC enzyme assay, transfected COS-1 microsomes on RDH2 (retinol dehydrogenase 2)

[4] = target: T3, RDH2 (retinol dehydrogenase 2); assay: as above; assay type: biochemical; settings: read-out: % of control activity at 100 μM
[5] = target: T2, 5α-Red1 (5α-reductase 1; SRD5A1); assay: as above; assay type: biochemical; settings: read-out: % of control activity at 100 μM
[6] = substrate: C[C@]12CCC(=O)C[C@@H]1CC[C@@H]1[C@@H]2CC[C@]2(C)[C@@H](O)CC[C@@H]12; assay: cells, lysate or membranes; settings: 0.2 mM NADPH, 0.0315–10 µM dihydrotestosterone, PBS pH 7.2, radiolabelled tracer
[7] = substrate: C[C@]12CC[C@H]3[C@@H](CCC4=CC(=O)CC[C@@]43C)[C@@H]1CC[C@@H]2O; assay: cells, lysate or membranes; settings: 0.2 mM NADPH, 0.0315–10 µM testosterone, PBS pH 7.2, radiolabelled tracer
[8] = substrate: C[C@]12CC[C@@H](O)C[C@@H]1CC[C@@H]1[C@@H]2CC[C@]2(C)[C@@H](O)CC[C@@H]12; assay: cells, lysate or membranes; settings: 0.2 mM NAD+, 0.0315–10 µM DIOL, PBS pH 7.2, radiolabelled tracer

CC(C)(C)C(O)(CCc1ccc(Cl)cc1)Cn1cncn1 (stereo not drawn) [tebuconazole]
IC50 [1]: ~100 µM
IC50 [2]: 8.67 ± 0.771 µM
IC50 ([3]; read-out: 3α-HSD): > 100 µM

CC(C)(C)C(=O)C(Oc1ccc(Cl)cc1)n1cncn1 (stereo not drawn) [triadimefon]
IC50 [1]: 26.49 ± 0.076 µM
IC50 [2]: 17.39 ± 0.079 µM
IC50 ([3]; read-out: RDH2): > 100 µM

C=CC1(C)OC(=O)N(c2cc(Cl)cc(Cl)c2)C1=O (stereo not drawn) [vinclozolin]
IC50 [1]: ~100 µM
remaining activity at 100 µM [4]: 85.5 ± 2.2%
remaining activity at 100 µM [5]: 74.2 ± 5.57%

B1: 3α-HSD (3α-hydroxysteroid dehydrogenase; AKR1C14) (Rattus norvegicus) (protein)
chain: MDSISLRVALNDGNFIPVLGFGTTVPEKVAKDEVIKATKIAIDNGFRHFDSAYLYEVEEEVGQAIRSKIEDGTVKREDIFYTSKLWSTFHRPELVRTCLEKTLKSTQLDYVDLYIIHFPMALQPGDIFFPRDEHGKLLFETVDICDTWEAMEKCKDAGLAKSIGVSNFNCRQLERILNKPGLKYKPVCNQVECHLYLNQSKMLDYCKSKDIILVSYCTLGSSRDKTWVDQKSPVLLDDPVLCAIAKKYKQTPALVALRYQLQRGVVPLIRSFNAKRIKELTQVFEFQLASEDMKALDGLNRNFRYNNAKYFDDHPNHPFTDE
Km [6]: 3.148 ± 0.197 µM
Vmax [6]: 6.67e-05 µmol/min/mg

B2: 5α-Red1 (5α-reductase 1; SRD5A1) (Rattus norvegicus) (protein)
chain: MVPLMELDELCLLDMLVYLEGFMAFVSIVGLRSVGSPYGRYSPQWPGIRVPARPAWFIQELPSMAWPLYEYIRPAAARLGNLPNRVLLAMFLIHYVQRTLVFPVLIRGGKPTLLVTFVLAFLFCTFNGYVQSRYLSQFAVYAEDWVTHPCFLTGFALWLVGMVINIHSDHILRNLRKPGETGYKIPRGGLFEYVSAANYFGELVEWCGFALASWSLQGVVFALFTLSTLLTRAKQHHQWYHEKFEDYPKSRKILIPFVL
Km [7]: 1.397 ± 0.35 µM
Vmax [7]: 3.49e-06 µmol/min/mg

B3: RDH2 (retinol dehydrogenase 2) (Rattus norvegicus) (protein)
chain: MWLYLLALVGLWNLLRLFRERKVVSHLQDKYVFITGCDSGFGNLLARQLDRRGMRVLAACLTEKGAEQLRSKTSDRLETVILDVTKTESIVAATQWVKERVGNTGLWGLVNNAGISGHLGPNEWMNKQNIASVLDVNLLGMIEVTLSTVPLVRKARGRVVNVASIAGRLSFCGGGYCISKYGVEAFSDSLRRELSYFGVKVAIVEPGFFRTDVTNGVTLSSNFQMLWDQTSSEVREVYGENYLASYLKMLNGLDQRCNKDLSLVTDCMEHALTSCHPRTRYSAGWDAKFFYLPMSYLPTFLVDALFYWTSPKPEKAL
Km [8]: 2.850 ± 0.037 µM
Vmax [8]: 0.00053 µmol/min/mg
